Source: patent publication US11571423B2, “Small molecule modulators of human sting” (Curadev Pharma Limited, priority 2017, dated 2023)
Read-outs that look alike come from different tables or passages of the source.

Assays:
IRF pathway = experiment: Reporter gene expression assay in THP1-Dual cells, IRF axis (secreted Lucia luciferase); assay type: cell-based, human; conditions: 20 hr stimulation, EC50 range class, read-out: THP-IRF activity
Description: (§1) THP1-Dual™ cells (Invivogen) were derived from the human THP-1 monocyte cell line by stable integration of two inducible reporter constructs. As a result, THP1-Dual™ cells allow the simultaneous study of the NF-κB pathway, by monitoring the activity of secreted SEAP, and the IRF pathway, by assessing the activity of a secreted luciferase (Lucia). 5×10^5 THP1-Dual™ cells were seeded in 384-well plates in growth medium and stimulated with novel compounds. After 20 hr of stimulation supernatants were removed and reporter proteins were readily measured in the cell culture supernatant using QUANTI-Blue™ (Invivogen), a SEAP detection reagent, and QUANTI-Luc™ (Invivogen), a luciferase detection reagent on a Spectramax i3X luminometer.
(§2) EC50 value ranges for exemplary compounds tested in the above assay are given.

hSTING(HAQ) = hSTING(HAQ) (Homo sapiens, UniProt Q86WV6, G230A/H232R/R293Q/R71H); experiment: Luciferase reporter assay in HEK293T-hSTING-Luciferase cells, HAQ polymorph; assay type: cell-based; conditions: HAQ polymorph of human STING, EC50 range class
Excerpt: (§3) Stable Cell Line Generation • a) Stable STING expressing cells—Stable HEK293T STING-expressing cell lines were generated using plasmids purchased from Invivogen, CA, USA, that contain STING cDNA cloned into the pUNO-1 vector under hEF1-HTLV promoter and containing the Blasticidin selection cassette. The plasmids hSTING(R232), hSTING(H232), hSTING(HAQ) were directly procured from Invivogen while hSTING (AQ) and hSTING (Q) were derived from hSTING(HAQ) and hSTING (R232) plasmids respectively by using a PCR based site directed mutagenesis method. These vectors were individually transfected into HEK293T cells using Lipofectamine (Invitrogen) and transfected cells were selected under Blasticidin selection. These transfected cells were further subjected to clonal selection using the limiting dilution method to obtain clonally pure populations of HEK cells transfected with each of the above mentioned human STING variants. Only those clones were selected in which ligand independent activation of STING was minimal. • b) Stable Luciferase reporter gene expressing cells—Stable HEK293T Luciferase reporter gene expressing cell lines were generated using pCDNA4 plasmids under an IRF-inducible promoter. This promoter is comprised of five tandem interferon-stimulated response elements (ISRE) fused to an ISG54 minimal promoter. This vector was transfected into HEK293T cells using Lipofectamine (Invitrogen) and transfected cells were selected under Zeocin selection. These transfected cells were further subjected to clonal selection using the limiting dilution method to obtain clonally pure populations of HEK cells transfected the Luciferase reporter construct. Only those clones were selected in which ligand independent induction of luciferase was minimal.
(§4) 5×10^5 clonally selected HEK293T-hSTING-Luciferase cells were seeded in 384-well plates in growth medium and stimulated with novel compounds. After 20 hr of stimulation supernatant were removed and secretary reporter gene activity were measured using the Quanti-Luc detection system (Invivogen) on a Spectramax i3X luminometer.
(§5) In the tables below, EC50 value ranges for exemplary compounds are given.
(§6) Single nucleotide polymorphisms of human STING have been described, which can affect the functional potency of compounds that modulate the activity of the STING protein (see Yi et. al., PLoS One, October 2013, 8(10), e77846). The 5 major polymorphisms of human STING are shown in FIG. 1, with their prevalence in human populations indicated.
(§7) The tables below show the potency of selected compounds of the invention against the most common polymorphisms.

hSTING(H232) = hSTING(H232) (Homo sapiens, UniProt Q86WV6); experiment: Luciferase reporter assay in HEK293T-hSTING-Luciferase cells, H232/REF polymorph; assay type: cell-based; conditions: H232/REF polymorph of human STING, EC50 range class
Excerpt: as §3, §4, §5, §6, §7

NF-κB pathway = experiment: Reporter gene expression assay in THP1-Dual cells, NFkB axis (secreted SEAP); assay type: cell-based, human; conditions: 20 hr stimulation, EC50 range class, read-out: THP-NFκB activity
Description: as §1, §2

hSTING(R232) = hSTING(R232) (Homo sapiens, UniProt Q86WV6, H232R); experiment: Luciferase reporter assay in HEK293T-hSTING-Luciferase cells, R232 (wild type) human STING; assay type: cell-based; conditions: 20 hr stimulation, read-out: R232 human activity (EC50 range)
Procedure, shortened: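 Clonal HEK293T cells stably expressing STING from a pUNO-1 plasmid plus an ISRE/ISG54-driven secreted luciferase reporter; 5×10^5 cells stimulated with compound for 20 hr. Supernatant luciferase read by luminescence, giving fold-induction over baseline and EC50.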

Sequence of hSTING(HAQ) (Q86WV6 whole entry R71H/G230A/H232R/R293Q): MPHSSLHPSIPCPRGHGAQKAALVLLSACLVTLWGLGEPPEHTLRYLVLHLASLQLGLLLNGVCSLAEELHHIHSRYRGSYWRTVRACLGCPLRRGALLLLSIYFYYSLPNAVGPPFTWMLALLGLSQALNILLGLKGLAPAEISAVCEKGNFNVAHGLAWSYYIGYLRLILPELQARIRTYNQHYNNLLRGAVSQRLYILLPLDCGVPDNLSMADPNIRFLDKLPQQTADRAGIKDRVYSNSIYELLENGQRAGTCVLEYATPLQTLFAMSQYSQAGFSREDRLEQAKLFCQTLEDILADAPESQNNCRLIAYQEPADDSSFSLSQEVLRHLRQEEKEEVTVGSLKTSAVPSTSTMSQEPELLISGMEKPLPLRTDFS
Sequence of hSTING(H232) (Q86WV6 whole entry): as the sequence (Q86WV6 whole entry R71H/G230A/H232R/R293Q) above, with H71R, A230G, R232H, Q293R counted along it
Sequence of hSTING(R232) (Q86WV6 whole entry H232R): as the sequence (Q86WV6 whole entry R71H/G230A/H232R/R293Q) above, with H71R, A230G, Q293R counted along it

SMILES	EC50 (IRF pathway; Homo sapiens)	EC50 (hSTING(HAQ))	EC50 (hSTING(H232))	EC50 (NF-κB pathway; Homo sapiens)	EC50 (hSTING(R232))	EC50 (IRF pathway)	EC50 (NF-κB pathway)
CC1c2ccc(C(=O)NCc3c(F)cc(F)cc3F)cc2N(Cc2cc(C(N)=O)ccc2F)C(=O)N1C (stereo not shown) [Example 167, 1-(5-carbamoyl-2-fluorobenzyl)-3,4-dimethyl-2-oxo-N-(2,4,6-trifluorobenzyl)-1,2,3,4-tetrahydroquinazoline-7-carboxamide]	> 10 µM	> 10000 nM	> 10000 nM	> 10 µM	< 1000 nM		
CNc1cccc(F)c1CN1C(=O)N(C)C(C)c2ccc(C(=O)NCc3c(F)cc(F)cc3F)cc21 (stereo not shown) [Example 174, 1-(2-fluoro-6-(methylamino)benzyl)-3,4-dimethyl-2-oxo-N-(2,4,6-trifluorobenzyl)-1,2,3,4-tetrahydroquinazoline-7-carboxamide]	1 to 10 µM	< 1000 nM	< 1000 nM	1 to 10 µM	< 1000 nM		
CC1c2ccc(C(=O)NCc3c(F)cc(F)cc3F)cc2N(Cc2c(F)cccc2N(C)C)C(=O)N1C (stereo not shown) [Example 175, 1-(2-(dimethylamino)-6-fluorobenzyl)-3,4-dimethyl-2-oxo-N-(2,4,6-trifluorobenzyl)-1,2,3,4-tetrahydroquinazoline-7-carboxamide]	> 10 µM	1000 to 10000 nM	1000 to 10000 nM	> 10 µM	1000 to 10000 nM		
COC(=O)c1ccc(F)c(CN2C(=O)N(C)[C@@H](C)c3ccc(C(=O)NCc4c(F)cc(F)cc4F)cc32)c1Cl [Example 185, (S)-methyl 2-chloro-3-((3,4-dimethyl-2-oxo-7-((2,4,6-trifluorobenzyl)carbamoyl)-3,4-dihydroquinazolin-1(2H)-yl)methyl)-4-fluorobenzoate]	1 to 10 µM	< 1000 nM	< 1000 nM	1 to 10 µM	< 1000 nM		
CC1c2ccc(C(=O)NCc3c(F)cc(F)cc3F)cc2N(Cc2c(F)cccc2C(F)(F)F)C(=O)N1C (stereo not shown) [Example 196, 1-(2-fluoro-6-(trifluoromethyl)benzyl)-3,4-dimethyl-2-oxo-N-(2,4,6-trifluorobenzyl)-1,2,3,4-tetrahydroquinazoline-7-carboxamide]	< 1 µM	< 1000 nM	< 1000 nM	< 1 µM	< 1000 nM		
Cc1cccc(F)c1CN1C(=O)N(C)C(C)c2ccc(C(=O)NCc3c(F)cc(F)cc3F)cc21 (stereo not shown) [Example 203, 1-(2-fluoro-6-methylbenzyl)-3,4-dimethyl-2-oxo-N-(2,4,6-trifluorobenzyl)-1,2,3,4-tetrahydroquinazoline-7-carboxamide]		< 1000 nM	< 1000 nM		< 1000 nM	< 1 µM	< 1 µM
CC1c2ccc(C(=O)NCc3c(F)cc(F)cc3F)cc2N(Cc2c(F)cccc2OS(C)(=O)=O)C(=O)N1C (stereo not shown) [Example 204, 2-((3,4-dimethyl-2-oxo-7-((2,4,6-trifluorobenzyl)carbamoyl)-3,4-dihydroquinazolin-1(2H)-yl)methyl)-3-fluorophenyl methanesulfonate]	> 10 µM	1000 to 10000 nM	1000 to 10000 nM	> 10 µM	< 1000 nM		
Cc1cc(CN2C(=O)N(C)C(C)c3ccc(C(=O)NCc4c(F)cc(F)cc4F)cc32)ccn1 (stereo not shown) [Example 208, 3,4-dimethyl-1-((2-methylpyridin-4-yl)methyl)-2-oxo-N-(2,4,6-trifluorobenzyl)-1,2,3,4-tetrahydroquinazoline-7-carboxamide]	1 to 10 µM	< 1000 nM	< 1000 nM	1 to 10 µM	< 1000 nM		
Cc1ccc(CNC(=O)c2ccc3c(c2)N(Cc2c(F)cccc2Cl)C(=O)N(C)C3C)o1 (stereo not shown) [Example 212, 1-(2-chloro-6-fluorobenzyl)-3,4-dimethyl-N-((5-methylfuran-2-yl)methyl)-2-oxo-1,2,3,4-tetrahydroquinazoline-7-carboxamide]	> 10 µM	1000 to 10000 nM	1000 to 10000 nM	> 10 µM	< 1000 nM		

Further lines, results first:

EC50 (IRF pathway; Homo sapiens)	EC50 (hSTING(HAQ))	EC50 (hSTING(H232))	EC50 (NF-κB pathway; Homo sapiens)	EC50 (hSTING(R232))	EC50 (IRF pathway)	EC50 (NF-κB pathway)	SMILES
1 to 10 µM	1000 to 10000 nM	1000 to 10000 nM	1 to 10 µM	< 1000 nM			CC1c2ccc(C(=O)NCc3cc4ccccc4o3)cc2N(Cc2c(F)cccc2Cl)C(=O)N1C (stereo not shown) [Example 213, N-(benzofuran-2-ylmethyl)-1-(2-chloro-6-fluorobenzyl)-3,4-dimethyl-2-oxo-1,2,3,4-tetrahydroquinazoline-7-carboxamide]
1 to 10 µM	1000 to 10000 nM	1000 to 10000 nM	1 to 10 µM	< 1000 nM			C[C@H]1c2ccc(C(=O)NCc3c(F)cc(F)cc3F)cc2N(Cc2ncccc2F)C(=O)N1C [Example 227, (S)-1-((3-fluoropyridin-2-yl)methyl)-3,4-dimethyl-2-oxo-N-(2,4,6-trifluorobenzyl)-1,2,3,4-tetrahydroquinazoline-7-carboxamide]
> 10 µM	1000 to 10000 nM	1000 to 10000 nM	> 10 µM	1000 to 10000 nM			CC1c2ccc(C(=O)NCc3ccc(O)cc3)cc2N(Cc2c(F)cccc2Cl)C(=O)N1C (stereo not shown) [Example 235, 1-(2-chloro-6-fluorobenzyl)-N-(4-hydroxybenzyl)-3,4-dimethyl-2-oxo-1,2,3,4-tetrahydroquinazoline-7-carboxamide]
1 to 10 µM	< 1000 nM	< 1000 nM	1 to 10 µM	< 1000 nM			Cc1cc(CN2C(=O)N(C)C(C)c3ccc(C(=O)NCc4c(F)cc(F)cc4F)cc32)c(F)cn1 (stereo not shown) [Example 237, 1-((5-fluoro-2-methylpyridin-4-yl)methyl)-3,4-dimethyl-2-oxo-N-(2,4,6-trifluorobenzyl)-1,2,3,4-tetrahydroquinazoline-7-carboxamide]
1 to 10 µM	1000 to 10000 nM	1000 to 10000 nM	1 to 10 µM	< 1000 nM			Cc1ccc(F)c(CN2C(=O)N(C)C(C)c3ccc(C(=O)NCc4c(F)cc(F)cc4F)cc32)n1 (stereo not shown) [Example 238, 1-((3-fluoro-6-methylpyridin-2-yl)methyl)-3,4-dimethyl-2-oxo-N-(2,4,6-trifluorobenzyl)-1,2,3,4-tetrahydroquinazoline-7-carboxamide]
1 to 10 µM	1000 to 10000 nM	1000 to 10000 nM	1 to 10 µM	< 1000 nM			C[C@H]1c2ccc(C(=O)NCc3c(F)cc(F)cc3F)cc2N(Cc2ccc(N=[N+]=[N-])cc2)C(=O)N1C [Example 239, (S)-1-(4-azidobenzyl)-3,4-dimethyl-2-oxo-N-(2,4,6-trifluorobenzyl)-1,2,3,4-tetrahydroquinazoline-7-carboxamide]
> 10 µM	1000 to 10000 nM	1000 to 10000 nM	> 10 µM	1000 to 10000 nM			C[C@H]1c2ccc(C(=O)NCc3c(F)cc(F)cc3F)cc2N(Cc2ccc(N)cc2)C(=O)N1C [Example 243, (S)-1-(4-aminobenzyl)-3,4-dimethyl-2-oxo-N-(2,4,6-trifluorobenzyl)-1,2,3,4-tetrahydroquinazoline-7-carboxamide]
< 1 µM	< 1000 nM	< 1000 nM	< 1 µM	< 1000 nM			COc1cc(F)c(CNC(=O)c2ccc3c(c2)N(Cc2c(F)cccc2Cl)C(=O)N(C)[C@H]3C)c(F)c1 [Example 246, (S)-1-(2-chloro-6-fluorobenzyl)-N-(2,6-difluoro-4-methoxybenzyl)-3,4-dimethyl-2-oxo-1,2,3,4-tetrahydroquinazoline-7-carboxamide]
